# Experimental data: patent US20220380385A1, “PYRIMIDINE FIVE-MEMBERED NITROGEN HETEROCYCLIC DERIVATIVE, PREPARATION METHOD THEREOF AND PHARMACEUTICAL USE THEREOF” (TUOJIE BIOTECH(SHANGHAI) CO., LTD., priority 2019, published 2022)
# Tests used:
# CYP2C19 = target: T1, CYP2C19 (Homo sapiens, UniProt P33261); assay: CYP inhibition in mixed human liver microsomes, CYP2C19 (S-mephenytoin); format: in vitro ADME; conditions: mixed human liver microsomes 0.2 mg/mL, S-mephenytoin; read-out: Median inhibitory concentration (IC50) CYP 2C19
# T1 construct: Mixed human liver microsomes from 150 donors; tissue Corning 452117; host or cells: pooled human liver microsomes (150 donors)
# T1 sequence (P33261 whole entry): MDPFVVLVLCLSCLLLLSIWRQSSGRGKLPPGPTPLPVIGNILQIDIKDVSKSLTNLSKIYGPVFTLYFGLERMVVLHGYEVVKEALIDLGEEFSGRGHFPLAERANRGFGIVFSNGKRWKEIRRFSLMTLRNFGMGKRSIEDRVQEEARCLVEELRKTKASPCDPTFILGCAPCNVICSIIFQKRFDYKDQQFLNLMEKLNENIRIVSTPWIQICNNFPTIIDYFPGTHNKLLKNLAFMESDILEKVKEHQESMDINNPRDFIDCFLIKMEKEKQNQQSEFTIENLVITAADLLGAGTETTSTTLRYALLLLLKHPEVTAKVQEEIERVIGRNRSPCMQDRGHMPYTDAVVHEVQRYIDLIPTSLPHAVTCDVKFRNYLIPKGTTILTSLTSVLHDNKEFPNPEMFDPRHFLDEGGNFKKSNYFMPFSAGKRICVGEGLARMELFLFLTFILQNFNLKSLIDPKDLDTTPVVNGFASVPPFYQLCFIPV
# Experimental: (§1) Mixed human liver microsomes from 150 donors (purchased from Corning, catalog number 452117) were used to evaluate the representative substrate metabolic responses of the five main human CYP subtypes (CYP1A2, CYP2C9, CYP2C19, CYP2D6 and CYP3A4/5). The influence of different concentrations of test compounds on the metabolic responses of phenacetin (CYP1A2), diclofenac sodium (CYP2C9), S-mephenytoin (CYP2C19), bufurolol hydrochloride (2D6) and midazolam (CYP3A4/5) was determined by liquid chromatography tandem mass spectrometry (LC/MS/MS).
# (§2) 200 μL of the reaction system (100 mmol/L phosphate buffer, pH 7.4, containing 0.3% DMSO, 0.6% acetonitrile and 0.1% methanol by volume respectively) with 30 µM phenacetin, 10 μM diclofenac sodium, 35 μM S-mephenytoin, 5 μM bufurolol hydrochloride, 3 μM midazolam, 1 mM NADPH, test compound (at a concentration of 0.1, 0.3, 1, 3, 10 and 30 μmol/L respectively) or positive compound or blank control and mixed human liver microsomes (0.2 mg/mL) was incubated at 37° C. for 5 minutes. […]
# (§3) The peak area was calculated based on the chromatograms. The residual activity ratio (%) was calculated using the following equation: […]
# (§4) The CYP median inhibitory concentration (IC50) was calculated by Excel XLfit 5.3.1.3.
# CYP2D6 = target: T2, CYP2D6 (Homo sapiens, UniProt P10635); assay: CYP inhibition in mixed human liver microsomes, CYP2D6 (bufurolol hydrochloride); format: in vitro ADME; conditions: mixed human liver microsomes 0.2 mg/mL, bufurolol hydrochloride; read-out: Median inhibitory concentration (IC50) CYP 2D6
# T2 construct: Mixed human liver microsomes from 150 donors; tissue Corning 452117; host or cells: pooled human liver microsomes (150 donors)
# T2 sequence (P10635 whole entry): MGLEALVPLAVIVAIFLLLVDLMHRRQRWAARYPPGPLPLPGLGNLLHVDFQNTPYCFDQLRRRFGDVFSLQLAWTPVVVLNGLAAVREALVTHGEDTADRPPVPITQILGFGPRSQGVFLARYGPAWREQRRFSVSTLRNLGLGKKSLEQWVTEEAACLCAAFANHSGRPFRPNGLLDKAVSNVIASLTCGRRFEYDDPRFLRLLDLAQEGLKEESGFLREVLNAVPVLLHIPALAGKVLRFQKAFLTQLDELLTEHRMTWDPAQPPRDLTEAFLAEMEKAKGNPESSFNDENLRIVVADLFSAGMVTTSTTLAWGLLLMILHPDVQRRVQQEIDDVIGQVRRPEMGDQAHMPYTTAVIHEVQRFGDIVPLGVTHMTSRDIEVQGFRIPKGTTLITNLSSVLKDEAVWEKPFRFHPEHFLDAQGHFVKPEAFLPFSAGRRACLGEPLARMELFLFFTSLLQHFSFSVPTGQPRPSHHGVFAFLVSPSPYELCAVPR
# Experimental: as §1, §2, §3, §4
# CYP2C9 = target: T3, CYP2C9 (Homo sapiens, UniProt P11712); assay: CYP inhibition in mixed human liver microsomes, CYP2C9 (diclofenac sodium); format: in vitro ADME; conditions: mixed human liver microsomes 0.2 mg/mL, diclofenac sodium; read-out: Median inhibitory concentration (IC50) CYP 2C9
# T3 construct: Mixed human liver microsomes from 150 donors; tissue Corning 452117; host or cells: pooled human liver microsomes (150 donors)
# T3 sequence (P11712 whole entry): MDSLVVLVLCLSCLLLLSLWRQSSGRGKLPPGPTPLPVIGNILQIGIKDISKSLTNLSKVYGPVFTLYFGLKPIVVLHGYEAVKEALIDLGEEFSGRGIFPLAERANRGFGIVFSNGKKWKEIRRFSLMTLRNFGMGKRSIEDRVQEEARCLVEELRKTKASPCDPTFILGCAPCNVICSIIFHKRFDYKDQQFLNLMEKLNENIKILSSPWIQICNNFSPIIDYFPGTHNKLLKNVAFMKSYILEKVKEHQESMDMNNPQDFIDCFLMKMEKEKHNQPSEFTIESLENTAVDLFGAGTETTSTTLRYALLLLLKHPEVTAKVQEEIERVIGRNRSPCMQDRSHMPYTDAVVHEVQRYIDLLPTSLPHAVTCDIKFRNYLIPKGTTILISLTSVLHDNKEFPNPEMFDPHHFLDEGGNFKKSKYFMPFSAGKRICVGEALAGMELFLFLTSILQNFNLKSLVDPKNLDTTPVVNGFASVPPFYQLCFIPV
# Experimental: as §1, §2, §3, §4
# CYP1A2 = target: T4, CYP1A2 (Homo sapiens, UniProt P05177); assay: CYP inhibition in mixed human liver microsomes, CYP1A2 (phenacetin); format: in vitro ADME; conditions: mixed human liver microsomes 0.2 mg/mL, phenacetin; read-out: Median inhibitory concentration (IC50) CYP 1A2
# T4 construct: Mixed human liver microsomes from 150 donors; tissue Corning 452117; host or cells: pooled human liver microsomes (150 donors)
# T4 sequence (P05177 1-516): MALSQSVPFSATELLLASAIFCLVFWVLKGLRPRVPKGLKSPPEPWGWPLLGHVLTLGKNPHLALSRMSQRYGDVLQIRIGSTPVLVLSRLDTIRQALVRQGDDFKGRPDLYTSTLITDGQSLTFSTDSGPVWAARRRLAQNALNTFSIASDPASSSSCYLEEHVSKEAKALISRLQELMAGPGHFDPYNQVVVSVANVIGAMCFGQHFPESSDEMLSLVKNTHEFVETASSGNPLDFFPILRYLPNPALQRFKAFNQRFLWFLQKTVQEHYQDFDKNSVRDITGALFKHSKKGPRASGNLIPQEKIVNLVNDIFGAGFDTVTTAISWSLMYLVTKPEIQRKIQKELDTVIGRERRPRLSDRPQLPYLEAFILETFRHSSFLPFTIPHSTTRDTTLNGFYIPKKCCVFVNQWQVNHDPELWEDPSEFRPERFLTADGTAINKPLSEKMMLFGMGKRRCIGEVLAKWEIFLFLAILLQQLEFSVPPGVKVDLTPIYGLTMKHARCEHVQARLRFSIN
# Experimental: as §1, §2, §3, §4
# CYP3A4/5 = assay: CYP inhibition in mixed human liver microsomes, CYP3A4/5 (midazolam); format: in vitro ADME; conditions: mixed human liver microsomes (150 donors), pH 7.4, probe midazolam (3 μM), mixed human liver microsomes 0.2 mg/mL, read-out: Median inhibitory concentration (IC50) CYP 3A4/5
# Experimental: as §1, §2, §3, §4
# [1] = In vivo pharmacokinetics in rats (gavage); set-up: species or system SD rats; conditions: original drug, rat, 7.5 mpk
# Experimental: (§5) Rats were used as the test animals. The plasma drug concentration at different times after the rats were given the compounds of the invention by gavage was determined by using the LC/MS/MS method. The in vivo pharmacokinetic behavior of the compounds of the present invention in rats was studied, and pharmacokinetic characteristics thereof were evaluated.
# Test animals: 3 healthy, 6-8 weeks old male SD rats in each group
# A certain amount of drug was weighed, and 0.5% by mass of hypromellose, 0.1% by volume of Tween 80 and 99.4% by volume of water were added thereto to formulate a white suspension at 1 mg/mL.
# SD rats were fasted overnight, then the drug was administered by gavage. The dosage of reference 1 was 7.5 mg/kg, and the dosage of Example 1 was 5 mg/kg.
# (§6) Rats were administered the compounds of the present invention by gavage. At 0.25, 0.5, 1, 2, 4, 8 and 24 hours after administration, 0.2 mL of blood was collected from the jugular vein and placed in a test tube containing EDTA-K2. The tube was centrifuged at 4° C., 4000 rpm for 5 minutes to separate the plasma, which was stored at −75° C.
# Determination of the content of the test compounds in rat plasma after administration of different concentrations of drugs by gavage: 50 μL of rat plasma at each time after administration was taken, and 200 μL of a solution of the internal standard dexamethasone in acetonitrile (50 ng/mL). The mixture was mixed by vortexing for 30 seconds, centrifuged at 4° C., 4700 rpm for 15 minutes. The supernatant of the plasma samples were collected and diluted three times with water, and 2.0 μL was taken for the LC/MS/MS analysis.
# [2] = In vitro metabolic stability in rat liver microsomes; format: in vitro ADME; conditions: rat liver microsomes (male Wistar Han), NADPH, 37° C.; read-out: Intrinsic clearance rate
# Experimental: The concentration of the compound in the reaction system was determined by LC/MS/MS, so as to calculate the intrinsic clearance rate of the test compound and to evaluate the in vitro metabolic stability in rat liver microsomes.
# 222.5 μL, 1.1236 mg/mL of a mixed solution of rat liver microsomes (male Wistar Han strain, purchased from Corning, catalog number 452511) and 25 μL, 10 mM of NADPH were added into the incubation plate. The mixture was mixed by vortexing for 10 seconds. The plate was incubated in a water bath at 37° C. for 8 minutes. 2.5 μL, 100 μM of the test compound or positive control was added to the incubation plate to start the reaction. The mixture was mixed by vortexing for 12 seconds, and incubated in a water bath at 37° C. The reaction was stopped by transferring 20 μL of the incubation system to a stop plate containing 100 μL of cold stop solution at 0.5, 5, 10, 15, 20 and 30 minutes. The mixture was mixed by vortexing for 2 minutes. The stop plate was centrifuged at 4000 rpm for 20 minutes, then left to stand at 4° C. for 30 minutes, and then centrifuged at 4000 rpm for 20 minutes. 40 μL of the supernatant of each compound was transferred to a 96-well injection plate, and 160 μL of pure water was added to dilute the samples.
# The obtained samples were quantified by ion chromatogram, and the residual rate was calculated according to the peak area of the test compounds or positive control. The slope k was determined by linear regression of the natural logarithm of the residual rate to the incubation time by using Microsoft Excel.
# The in vitro half-life (in vitro t1/2) was calculated from the slope: in vitro t1/2=−(0.693/k)
# The following equation was used to convert in vitro half-life into intrinsic clearance rate (in vitro CLint, μL/min/mg protein):
# in vitro CLint=(0.693/t1/2)×(incubation volume (L)/protein amount (mg))
# [3] = In vivo pharmacokinetics in cynomolgus monkeys (gavage); conditions: male, plasma, po, 5 mg/kg, original drug, cynomolgus monkey, 5 mpk
# Experimental: as §5, with “Cynomolgus monkeys” for “Rats”, “cynomolgus monkeys” for “rats”
# Test animals: 3 healthy, 2-5 years old male cynomolgus monkeys in each group;
# Administration by gavage: a certain amount of drug was weighed, and 0.5% by mass of hypromellose, 0.1% by volume of Tween 80 and 99.4% by volume of water were added thereto to formulate a white suspension at 1 mg/mL.
# The cynomolgus monkeys were fasted overnight, and then the drug was administered by gavage at a dose of 5 mg/kg.
# as §6, with “Cynomolgus monkeys were” for “Rats were”, “the peripheral” for “the jugular”, “at 2 to 8°” for “at 4°”, “C., 2000” for “C., 4000”, “for 10” for “for 5”
# Determination of the content of the test compounds in cynomolgus monkey plasma after administration of different concentrations of drugs by gavage: 55 μL of cynomolgus monkey plasma at each time after administration was taken, and 200 μL of a solution of the internal standard verapamil or dexamethasone in acetonitrile. The mixture was mixed by vortexing for 30 seconds, centrifuged at 4° C., 3900 rpm for 15 minutes. The supernatant of the plasma samples were collected and diluted three times with water, and 15 μL was taken for LC/MS/MS analysis.
# [4] = target: T5, full-length SHP2 (aa 1-593) (Homo sapiens, UniProt Q06124); assay: Activity on SHP2 phosphatase (DiFMUP fluorescence)
# T5 sequence (Q06124 1-593): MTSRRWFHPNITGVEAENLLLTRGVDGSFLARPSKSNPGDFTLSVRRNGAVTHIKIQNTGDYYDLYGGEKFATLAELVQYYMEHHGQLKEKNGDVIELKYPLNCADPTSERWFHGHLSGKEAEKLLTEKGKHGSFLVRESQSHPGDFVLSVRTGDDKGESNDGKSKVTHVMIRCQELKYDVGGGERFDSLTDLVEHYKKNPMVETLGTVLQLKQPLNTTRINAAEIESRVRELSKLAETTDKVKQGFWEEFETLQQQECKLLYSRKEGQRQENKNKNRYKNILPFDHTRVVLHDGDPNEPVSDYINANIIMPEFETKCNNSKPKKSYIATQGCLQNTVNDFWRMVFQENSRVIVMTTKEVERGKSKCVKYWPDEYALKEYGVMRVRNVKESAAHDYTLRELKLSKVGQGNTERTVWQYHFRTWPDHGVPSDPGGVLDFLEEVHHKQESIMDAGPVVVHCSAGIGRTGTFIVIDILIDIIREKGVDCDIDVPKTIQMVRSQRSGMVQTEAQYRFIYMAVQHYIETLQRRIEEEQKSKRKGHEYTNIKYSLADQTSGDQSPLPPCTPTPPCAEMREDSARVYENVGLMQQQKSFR
# Experimental: 0.2 nM recombinantly expressed full-length SHP2 (aa 1-593), 0.5 nM activated polypeptide IRS1 with dual phosphorylation sites (sequence: H2N-LN(pY)IDLDLY(dPEG8)LST(pY)ASINFQK-amide), and a series of concentrations of the test compound (final concentrations of 1 μM, 0.3 μM, 0.1 μM, 0.03 μM, 0.01 μM, 0.003 μM, 0.001 M, 0.0003 μM, 0.0001 μM and 0.00003 μM) were added into the phosphatase reaction solution (60 mM HEPES, PH 7.5 0.005% Brij-35, 75 mM NaCl, 75 mM KCl, 1 mM EDTA, 5 mM DTT), followed by shaking (350 rpm) at room temperature for 30 minutes. Then the reaction substrate DiFMUP was added at a final concentration of 30 μM, and the reaction solution was reacted at room temperature for 30 minutes. Then the phosphatase reaction was stopped by adding 5 μL of the reaction stop solution (60 mM HEPES, pH 7.5, 0.2% SDS). Ex358 nm/Em455 fluorescence value was read on the fluorescence plate reader MD SpectraMax.
# The IC50 value of compounds was calculated by using the four-parameter logit method. […] Different concentrations correspond to different inhibition rates of phosphatase activity. A reverse curve was plotted and the IC50 of the inhibitors was calculated from the curve. The IC50 of compounds was calculated by using Primer premier 6.0.
smiles,measurement,setting,value
"Nc1nccc(Sc2cnc(N3CCC4(CC3)Cc3ncccc3[C@H]4N)n3ccnc23)c1Cl [Example 1, (S)-1′-(8-((2-Amino-3-chloropyridin-4-yl)thio)imidazo[1,2-c]pyrimidin-5-yl)-5,7-dihydrospiro[cyclopenta[b]pyridine-6,4′-piperidin]-5-amine]",IC50,CYP2C19,> 20 µM
same,IC50,CYP2D6,> 20 µM
same,IC50,CYP2C9,> 20 µM
same,IC50,CYP1A2,9.21 µM
same,IC50 at 5 min,CYP3A4/5,> 20 µM
"CNc1nccc(Sc2c(C)nc(N3CCC4(CC3)Cc3ncccc3[C@H]4N)n3ccnc23)c1Cl [Example 2, (S)-1′-(8-((3-Chloro-2-(methylamino)pyridin-4-yl)thio)-7-methylimidazo[1,2-c]pyrimidin-5-yl)-5,7-dihydrospiro[cyclopenta[b]pyridine-6,4′-piperidin]-5-amine]",AUC,"[1]; male, SD, plasma, po, 7.5 mg/kg, read-out: Area under curve AUC",4250 ng·h/mL
same,Cmax,"[1]; male, SD, plasma, po, 7.5 mg/kg, read-out: Maximum blood conc. Cmax",500 ng/mL
same,Area under curve of unit dose AUC/D,[1],567 ng*h/mL per mg/kg
same,microsomal CLint at 1 µM,[2],19.2 µL/min/mg
same,AUC,[3]; read-out: Area under curve AUC,71000 ng·h/mL
same,Cmax,[3]; read-out: Maximum blood conc. Cmax,12700 ng/mL
"[2H]C([2H])Nc1nccc(Sc2c(C)nc(N3CCC4(CC3)Cc3ncccc3[C@H]4N)n3ccnc23)c1Cl [Example 5, (S)-1′-(8-((3-Chloro-2-((methyl-d2)amino)pyridin-4-yl)thio)-7-methylimidazo[1,2-c]pyrimidin-5-yl)-5,7-dihydrospiro[cyclopenta[b]pyridine-6,4′-piperidin]-5-amine]",microsomal CLint at 1 µM,[2],26.6 µL/min/mg
same,IC50,[4],0.0048 µM
"[2H]CNc1nccc(Sc2c(C)nc(N3CCC4(CC3)Cc3ncccc3[C@H]4N)n3ccnc23)c1Cl [Example 6, (S)-1′-(8-((3-Chloro-2-((methyl-d)amino)pyridin-4-yl)thio)-7-methylimidazo[1,2-c]pyrimidin-5-yl)-5,7-dihydrospiro[cyclopenta[b]pyridine-6,4′-piperidin]-5-amine]",microsomal CLint at 1 µM,[2],34.7 µL/min/mg
same,IC50,[4],0.0047 µM
